One block for each compound: values may come before it.
Assays:
[1] = tested on: total cholesterol in the serum; assay: Evaluation of serum lipid level: total cholesterol in serum of beagle dogs after oral administration for 11 days (CEH-COD-POD method); conditions: oral capsule once daily, pravastatin 2 mg/kg, mean of 5 dogs
Excerpt: (§1) Pravastatin with a purity of 99.4%, manufactured at Sankyo Co. Ltd., was employed in the study.
(§2) Male beagle dogs were purchased at 5 months old from Covance Research Products Inc., as the test animals, and were used after quarantine and acclimatization periods of approximately 1 month.
(§3) The required amounts of pravastatin or each combination drug as calculated based on the body weight of each animal were placed in a gelatin capsule (½-ounce volume) purchased from TORPAC Co. Capsules filled with pravastatin were stored in a cold room and with combination drugs at room temperature until use.
(§4) Combination drugs were put in identical geltin capsules.
(§5) Capsules filled with pravastatin or combination drugs were orally administered once daily between 9:00 and 12:30 to the test animals. All test animals were fasted 2-3 hr prior to administration. The administration period was 11 successive days.
(§6) Approximately 10 ml of blood were collected from the cephalic vein on 14 and 7 days before administration (2 and one week before the drug administration) and 4, 8, and 12 days after administration of the capsules. The animals were fasted for approximate 18 hr prior to blood collection. Collected blood was placed into test tubes and left for 0.5-1 hr at room temperature. The test tubes were then centrifuged at 3,000 rpm for 10 min to isolate serum. Levels of total cholesterol and ALP in the serum were determined by the CEH-COD-POD and Bessey-Lowry methods, respectively.
(§7) For quantitative analyses, an automatic analyzer, Monarch (Instrumentation Laboratory), was used.
(§8) Each value represents the mean value calculated from 5 animals.

[2] = tested on: ALP in the serum; conditions: oral capsule once daily, pravastatin 2 mg/kg, riboflavin acetate 6 mg/kg, relative to pre-administration average (100), mean of 5 dogs
Excerpt: as §1, §2, §3, §4, §5, §6, §7, §8

[3] = d-α-tocopherol acetate 10 mg/kg, ascorbic acid 50 mg/kg, relative to pre-administration average (100)
[4] = d-α-tocopherol acetate 10 mg/kg, relative to pre-administration average (100)
[5] = ascorbic acid 50 mg/kg, relative to pre-administration average (100)
[6] = riboflavin acetate 6 mg/kg, relative to pre-administration average (100)

Compound: CC(=O)Oc1c(C)c(C)c2c(c1C)CC[C@@](C)(CCC[C@H](C)CCC[C@H](C)CCCC(C)C)O2 [d-α-tocopherol acetate]
Total Cholesterol Level in Serum After Administration, 4 days [1, 3]: 97.8
Total Cholesterol Level in Serum After Administration, 4 days [1, 4]: 96.3
Total Cholesterol Level in Serum After Administration, 8 days [1, 3]: 96.4
Total Cholesterol Level in Serum After Administration, 8 days [1, 4]: 92.8
Total Cholesterol Level in Serum After Administration, 12 days [1, 3]: 96.1
Total Cholesterol Level in Serum After Administration, 12 days [1, 4]: 95.9

Compound: O=C1O[C@H]([C@@H](O)CO)C(O)=C1O [Ascorbic acid, ascorbic acid]
Total Cholesterol Level in Serum After Administration, 4 days [1, 5]: 98.7
Total Cholesterol Level in Serum After Administration, 8 days [1, 5]: 98.2
Total Cholesterol Level in Serum After Administration, 12 days [1, 5]: 103.4

ALP level (after administration), 4 days ([2]; 4 days): 98.1
ALP level (after administration), 8 days ([2]; 8 days): 98.8
ALP level (after administration), 12 days ([2]; 12 days): 93.9
Compound: Riboflavin acetate
Total Cholesterol Level in Serum After Administration, 4 days ([1]; riboflavin acetate 6 mg/kg, relative to average level 2 and 1 week before administration (100)): 103.9
Total Cholesterol Level in Serum After Administration, 8 days [1, 6]: 101.6
Total Cholesterol Level in Serum After Administration, 12 days [1, 6]: 100.5

From US6916849B2, “Compositions for improving lipid content in the blood” (priority 2000, dated 2005)
